Laboratory results from ChEMBL document CHEMBL1140725, “Pradefovir: a prodrug that targets adefovir to the liver for the treatment of hepatitis B” (J Med Chem, 2008).

Key:
Hepatocyte = test: Prodrug activation in intracellular rat hepatocytes assessed as formation of adefovir diphosphate after 2 hrs; type: cell-based
Liver microsomes = test: Prodrug activation in Wistar rat liver microsome assessed as formation of adefovir at 250 uM after 5 mins
Rattus norvegicus [1] = test: Prodrug activation in Sprague-Dawley rat liver hepatocytes assessed as formation of adefovir diphosphate at 30 mg/kg, po after 8 hrs; type: organism-based, Hepatocyte; parameters: dose 30 mg/kg, route oral
Kidney = test: Biodistribution in rat kidney at 30 mg/kg, po after 24 hrs; type: ADME, organism-based; parameters: dose 30 mg/kg, route oral; conditions: in vivo
Plasma = test: Biodistribution in rat plasma at 30 mg/kg, po after 24 hrs; type: ADME, organism-based; parameters: dose 30 mg/kg, route oral; conditions: in vivo
Intestine = test: Selectivity index, ratio of biodistribution in rat liver to intestine at 30 mg/kg, po after 24 hrs; type: organism-based; parameters: dose 30 mg/kg, route oral; conditions: in vivo
Liver [2] = test: Selectivity index, ratio of biodistribution in rat liver to kidney at 30 mg/kg, po after 24 hrs; type: organism-based; parameters: dose 30 mg/kg, route oral; conditions: in vivo
Rattus norvegicus [3] = test: Biodistribution in rat small intestine at 30 mg/kg, po after 24 hrs; type: ADME, organism-based; parameters: dose 30 mg/kg, route oral; conditions: in vivo
Liver [4] = test: Biodistribution in rat liver at 30 mg/kg, po after 24 hrs; type: ADME, organism-based; parameters: dose 30 mg/kg, route oral; conditions: in vivo
Rattus norvegicus [5] = test: Cmax in rat liver at 30 mg/kg, po; type: ADME, organism-based; parameters: dose 30 mg/kg, route oral; conditions: in vivo

Activity (Hepatocyte) [nmol·h/g] | Activity (Liver microsomes) [nmol/min/mg] | Compound | further results
0 | 0.5 | Nc1ncnc2c1ncn2CCOCP1(=O)OCCC(c2ccsc2)O1 (centres undefined) | –
0 | 0.5 | CC(C)(C)c1ccc(C2CCOP(=O)(COCCn3cnc4c(N)ncnc43)O2)cc1 (centres undefined) | –
61.9 | 1.5 | Nc1ncnc2c1ncn2CCOCP1(=O)OCCC(c2cc(F)cc(F)c2)O1 (centres undefined) | Activity (Rattus norvegicus [1]): 2.2 nmol·h/g
– | < 4.5 | Nc1ncnc2c1ncn2CCOCP1(=O)OCCC(c2cccc(Cl)c2Cl)O1 (centres undefined) | –
– | 2.3 | Nc1ncnc2c1ncn2CCOCP1(=O)OCCC(c2cc(F)ccc2F)O1 (centres undefined) | –
– | < 1 | COc1ccc(Br)cc1C1CCOP(=O)(COCCn2cnc3c(N)ncnc32)O1 (centres undefined) | –
70.3 | 1.9 | Nc1ncnc2c1ncn2CCOCP1(=O)OCCC(c2cccc(Br)c2)O1 (centres undefined) | Activity (Rattus norvegicus [1]): 2.2 nmol·h/g
149.1 | 2.9 | Nc1ncnc2c1ncn2CCOCP1(=O)OCCC(c2ccccc2)O1 (centres undefined) | Activity (Rattus norvegicus [1]): 0.6 nmol·h/g
26.7 | 2.9 | Nc1ncnc2c1ncn2CCOCP1(=O)OCCC(c2cccnc2)O1 (centres undefined) | –
– | 6.2 | Nc1ncnc2c1ncn2CCOCP1(=O)OCCC(c2ccccc2Cl)O1 (centres undefined) | –
– | 2.5 | Nc1ncnc2c1ncn2CCOCP1(=O)OCCC(c2ccc(F)cc2F)O1 (centres undefined) | –
0 | 4 | Nc1ncnc2c1ncn2CCOCP1(=O)OCCC(c2ccoc2)O1 (centres undefined) | –
106.2 | 4.5 | Nc1ncnc2c1ncn2CCOCP1(=O)OCCC(c2ccncc2)O1 (centres undefined) | Activity (Rattus norvegicus [1]): 1.2 nmol·h/g
9.8 | 2.5 | Nc1ncnc2c1ncn2CCOCP1(=O)OCCC(c2ccc(Cl)cc2Cl)O1 (centres undefined) | –

More lines, now with the values behind:

Compound | Activity (Hepatocyte) [nmol·h/g] | Activity (Liver microsomes) [nmol/min/mg] | further results
Nc1ncnc2c1ncn2CCOCP1(=O)OCCC(c2ccccc2Br)O1 (centres undefined) | 43.1 | 3.5 | Activity (Rattus norvegicus [1]): 7.1 nmol·h/g
Nc1ncnc2c1ncn2CCOCP1(=O)OCCC(c2ccccc2F)O1 (centres undefined) | – | < 1 | –
Nc1ncnc2c1ncn2CCOCP1(=O)OCCC(c2cccc(F)c2)O1 (centres undefined) | – | < 1 | –
CC(C)(C)C(=O)OCOP(=O)(COCCn1cnc2c(N)ncnc21)OCOC(=O)C(C)(C)C [ADEFOVIR DIPIVOXIL] | – | – | Drug uptake (Kidney): 742 nmol·h/g; Drug uptake (Plasma): 34 nmol·h/g; Selectivity index (Intestine): 0.08; Selectivity index (Liver [2]): 0.4; Drug uptake (Rattus norvegicus [3]): 3206 nmol·h/g; Drug uptake (Liver [4]): 284 nmol·h/g
Nc1ncnc2c1ncn2CCOCP1(=O)OCCC(c2cccc(Cl)c2)O1 (stereo in doubt; 3h) | 109.3 | 10.9 | Activity (Rattus norvegicus [1]): 6.6 nmol·h/g
Nc1ncnc2c1ncn2CCOC[P@@]1(=O)OCC[C@@H](c2cccc(Cl)c2)O1 [PRADEFOVIR] | – | 0.51 | Cmax (Rattus norvegicus [5]): 12.2 nmol/g
COc1ccc(C2CCOP(=O)(COCCn3cnc4c(N)ncnc43)O2)cc1Br (centres undefined) | < 0.5 | 1.1 | –
Nc1ncnc2c1ncn2CCOCP1(=O)OCCC(c2cccc(Cl)c2)O1 (cis isomer) | – | 0.421 | Drug uptake (Kidney): 196 nmol·h/g; Drug uptake (Plasma): 55 nmol·h/g; Selectivity index (Intestine): 7.5; Selectivity index (Liver [2]): 4.5; Drug uptake (Rattus norvegicus [3]): 118 nmol·h/g; Cmax (Rattus norvegicus [5]): 8 nmol/g; Drug uptake (Liver [4]): 884 nmol·h/g
Nc1ncnc2c1ncn2CCOCP1(=O)OCCC(c2c(Cl)cccc2Cl)O1 (centres undefined) | – | < 1 | –
COc1ccc(Br)c(C2CCOP(=O)(COCCn3cnc4c(N)ncnc43)O2)c1 (centres undefined) | < 0.5 | 4 | –
Nc1ncnc2c1ncn2CCOCP1(=O)OCCC(c2cccc(Cl)c2)O1 (trans isomer) | – | < 0.01 | –
Nc1ncnc2c1ncn2CCOCP1(=O)OCCC(c2cc(Cl)cc(Cl)c2)O1 (centres undefined) | 64.4 | 1.9 | Activity (Rattus norvegicus [1]): 2 nmol·h/g
Nc1ncnc2c1ncn2CCOCP1(=O)OCCC(c2cccc(F)c2F)O1 (centres undefined) | – | 6.3 | –
Cc1cc(C)cc(C2CCOP(=O)(COCCn3cnc4c(N)ncnc43)O2)c1 (centres undefined) | 40.7 | 1.6 | –
Nc1ncnc2c1ncn2CCOCP1(=O)OCCC(c2c(F)cccc2F)O1 (centres undefined) | – | 1.5 | –
Nc1ncnc2c1ncn2CCOC[P@]1(=O)OCC[C@H](c2cccc(Cl)c2)O1 | – | 0.193 | Cmax (Rattus norvegicus [5]): 5.4 nmol/g
CS(=O)(=O)O.Nc1ncnc2c1ncn2CCOCP1(=O)OCCC(c2cccc(Cl)c2)O1 (centres undefined) | – | – | Cmax (Rattus norvegicus [5]): 19.6 nmol/g
Nc1ncnc2c1ncn2CCOCP1(=O)OCCC(c2ccc(Cl)c(Cl)c2)O1 (centres undefined) | 6.2 | 1.5 | –
